From PubChem BioAssay AID212 (DTP/NCI, 2004)
Several values for one entry are separate records, joined by “and”; a condition that tells them apart may be missing. Identical values can stand only once. Inconclusive results are not listed.

System: BDF1 mice, colon carcinoma 38 sc, T/C %
Assay: NCI In Vivo Anticancer Drug Screen. Data for tumor model Colon Carcinoma 38 (subcutaneous) in B6D2F1 (BDF1) mice
Details: endpoint: median tumor weight (est.), higher = larger tumour
How it was run: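 T/C readout: treated group (T) measurement over vehicle control group (C) measurement. Endpoint is survival or tumor size in mice bearing a transplanted tumor.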

[1] = dose: 50.0 mg/kg/injection, schedule: Q07DX002 (ip), vehicle: saline
[2] = dose: 100.0 mg/kg/injection, schedule: Q07DX002 (ip), vehicle: saline
[3] = dose: 25.0 mg/kg/injection, schedule: Q07DX002 (ip), vehicle: Klucel (hydroxypropylcellulose) (HPC)
[4] = dose: 50.0 mg/kg/injection, schedule: Q07DX002 (ip), vehicle: Klucel (hydroxypropylcellulose) (HPC)
[5] = dose: 100.0 mg/kg/injection, schedule: Q07DX002 (ip), vehicle: Klucel (hydroxypropylcellulose) (HPC)
[6] = dose: 25.0 mg/kg/injection, schedule: Q07DX002 (ip), vehicle: saline
[7] = dose: 200.0 mg/kg/injection, schedule: Q07DX002 (ip), vehicle: saline
[8] = dose: 400.0 mg/kg/injection, schedule: Q07DX002 (ip), vehicle: saline

C=C1C(C)C2C(Cc3ccccc3)NC(=O)C23C(OC(C)=O)C=CC(C)(O)C(=O)C(C)C/C=C/C3C1O (stereo not given)
T/C (dose: 0.31 mg/kg/injection, schedule: Q07DX003 (ip), vehicle: Klucel (hydroxypropylcellulose) (HPC)): 93 % of control | T/C (dose: 0.62 mg/kg/injection, schedule: Q07DX003 (ip), vehicle: Klucel (hydroxypropylcellulose) (HPC)): 53 % of control | T/C (dose: 1.25 mg/kg/injection, schedule: Q07DX003 (ip), vehicle: Klucel (hydroxypropylcellulose) (HPC)): 72 % of control | T/C (dose: 2.5 mg/kg/injection, schedule: Q07DX003 (ip), vehicle: Klucel (hydroxypropylcellulose) (HPC)): 100 % of control | T/C (dose: 5.0 mg/kg/injection, schedule: Q07DX003 (ip), vehicle: Klucel (hydroxypropylcellulose) (HPC)): 84 % of control | T/C (dose: 10.0 mg/kg/injection, schedule: Q07DX003 (ip), vehicle: Klucel (hydroxypropylcellulose) (HPC)): 105 % of control

CCCCCCC/C=C/C(=O)OC1C(OC2C(OC(CCCCCCC)CC(=O)OC(CCCCCCC)CC(=O)O)OC(C)C(O)C2O)OC(C)C(O)C1O (stereo not given)
T/C (dose: 28.0 mg/kg/injection, schedule: Q07DX002 (ip), vehicle: Klucel (hydroxypropylcellulose) (HPC)): 79 % of control | T/C (dose: 112.0 mg/kg/injection, schedule: Q07DX002 (ip), vehicle: Klucel (hydroxypropylcellulose) (HPC)): 123 % of control | T/C (dose: 225.0 mg/kg/injection, schedule: Q07DX002 (ip), vehicle: Klucel (hydroxypropylcellulose) (HPC)): 42 % of control

O=C1OC(C(O)CO)C(O)=C1O (stereo not given)
T/C [1]: 43 % of control | T/C [2]: 100 % of control | T/C (dose: 800.0 mg/kg/injection, schedule: Q07DX002 (ip), vehicle: saline): 83 % of control | T/C (dose: 1600.0 mg/kg/injection, schedule: Q07DX002 (ip), vehicle: saline): 100 % of control

NC(C(=O)O)c1ccc(CBr)cc1 (stereo not given)
T/C (dose: 12.5 mg/kg/injection, schedule: Q07DX002 (ip), vehicle: saline with Tween-80): 151 % of control | T/C (dose: 25.0 mg/kg/injection, schedule: Q07DX002 (ip), vehicle: saline with Tween-80): 106 % of control | T/C (dose: 50.0 mg/kg/injection, schedule: Q07DX002 (ip), vehicle: saline with Tween-80): 182 % of control

Cc1ccc(C(=O)[O][Hg][CH2]C2COC([CH2][Hg][O]C(=O)c3ccc(C)cc3)CO2)cc1 (stereo not given)
T/C [3]: 186 % of control | T/C [4]: 177 % of control and 193 % of control | T/C [5]: 154 % of control and 209 % of control

CCN(CC)CC[n+]1ccc2c(C)c3[nH]c4ccc(O)cc4c3c(C)c2c1
T/C (dose: 3.12 mg/kg/injection, schedule: Q07DX002 (ip), vehicle: saline): 38 % of control | T/C (dose: 3.12 mg/kg/injection, schedule: Q07DX002 (ip), vehicle: suspension in saline): 82 % of control | T/C (dose: 6.25 mg/kg/injection, schedule: Q07DX002 (ip), vehicle: suspension in saline): 103 % of control | T/C (dose: 12.5 mg/kg/injection, schedule: Q07DX002 (ip), vehicle: suspension in saline): 98 % of control | T/C [6]: 15 % of control and 29 % of control | T/C (dose: 25.0 mg/kg/injection, schedule: Q07DX002 (ip), vehicle: suspension in saline): 57 % of control | T/C [1]: 5 % of control | T/C (dose: 50.0 mg/kg/injection, schedule: Q07DX002 (ip), vehicle: suspension in saline): 22 % of control

CN(CCN(C)C(=O)CCOS(C)(=O)=O)C(=O)CCOS(C)(=O)=O
T/C [1]: 75 % of control and 94 % of control | T/C [2]: 48 % of control and 63 % of control | T/C [7]: 25 % of control and 43 % of control

C=C1C(=O)C23C(O)CC4C5(C)CCCC4(C(O)OC5)C2C(OC(C)=O)CC1C3O (stereo not given)
T/C (dose: 8.0 mg/kg/injection, schedule: Q07DX002 (ip), vehicle: Klucel (hydroxypropylcellulose) (HPC)): 72 % of control | T/C (dose: 8.0 mg/kg/injection, schedule: Q07DX002 (ip), vehicle: saline): 124 % of control | T/C (dose: 16.0 mg/kg/injection, schedule: Q07DX002 (ip), vehicle: Klucel (hydroxypropylcellulose) (HPC)): 72 % of control | T/C (dose: 16.0 mg/kg/injection, schedule: Q07DX002 (ip), vehicle: saline): 106 % of control | T/C (dose: 32.0 mg/kg/injection, schedule: Q07DX002 (ip), vehicle: Klucel (hydroxypropylcellulose) (HPC)): 106 % of control | T/C (dose: 32.0 mg/kg/injection, schedule: Q07DX002 (ip), vehicle: saline): 117 % of control | T/C (dose: 64.0 mg/kg/injection, schedule: Q07DX002 (ip), vehicle: Klucel (hydroxypropylcellulose) (HPC)): 112 % of control | T/C (dose: 64.0 mg/kg/injection, schedule: Q07DX002 (ip), vehicle: saline): 101 % of control | T/C (dose: 128.0 mg/kg/injection, schedule: Q07DX002 (ip), vehicle: Klucel (hydroxypropylcellulose) (HPC)): 79 % of control

C=C1CC2(OC1=O)C(=O)N(C)c1ccc(I)cc12 (stereo not given)
T/C (dose: 1.81 mg/kg/injection, schedule: Q07DX002 (ip), vehicle: suspension in saline): 69 % of control | T/C (dose: 3.62 mg/kg/injection, schedule: Q07DX002 (ip), vehicle: suspension in saline): 114 % of control | T/C (dose: 7.25 mg/kg/injection, schedule: Q07DX002 (ip), vehicle: suspension in saline): 120 % of control | T/C (dose: 14.5 mg/kg/injection, schedule: Q07DX002 (ip), vehicle: suspension in saline): 63 % of control | T/C [6]: 93 % of control | T/C (dose: 29.0 mg/kg/injection, schedule: Q07DX002 (ip), vehicle: suspension in saline): 107 % of control | T/C (dose: 58.0 mg/kg/injection, schedule: Q07DX002 (ip), vehicle: suspension in saline): 111 % of control | T/C [7]: 89 % of control | T/C [8]: 108 % of control and 121 % of control

COc1ccc2ccccc2c1C1NC(=O)c2ccccc2N1 (stereo not given)
T/C [3]: 76 % of control | T/C [4]: 93 % of control | T/C [5]: 59 % of control | T/C (dose: 200.0 mg/kg/injection, schedule: Q07DX002 (ip), vehicle: Klucel (hydroxypropylcellulose) (HPC)): 52 % of control | T/C (dose: 400.0 mg/kg/injection, schedule: Q07DX002 (ip), vehicle: Klucel (hydroxypropylcellulose) (HPC)): 69 % of control | T/C (dose: 800.0 mg/kg/injection, schedule: Q07DX002 (ip), vehicle: Klucel (hydroxypropylcellulose) (HPC)): 69 % of control

COc1cccc2c1C(=O)c1c(O)c3c(c(O)c1C2=O)C[C@@](O)(C(=O)CO)C[C@@H]3OC1CC(N)CC(C)O1 (stereo not given in full)
T/C (dose: 0.75 mg/kg/injection, schedule: Q07DX002 (ip), vehicle: water): 93 % of control | T/C (dose: 1.5 mg/kg/injection, schedule: Q07DX002 (ip), vehicle: water): 110 % of control | T/C (dose: 3.0 mg/kg/injection, schedule: Q07DX002 (ip), vehicle: water): 25 % of control

CC(=O)N(C)c1ccc(Nc2cc(C)[nH]c3ccc4ncnc4c23)cc1
T/C (dose: 12.5 mg/kg/injection, schedule: Q07DX002 (ip), vehicle: saline): 118 % of control and 104 % of control | T/C [6]: 74 % of control and 80 % of control

CC(Oc1ccccc1-c1ccccc1)C(=O)N(C)C (stereo not given)
T/C (dose: 100.0 mg/kg/injection, schedule: Q07DX002 (ip), vehicle: saline with Tween-80): 79 % of control and 82 % of control | T/C (dose: 200.0 mg/kg/injection, schedule: Q07DX002 (ip), vehicle: saline with Tween-80): 74 % of control and 78 % of control | T/C (dose: 400.0 mg/kg/injection, schedule: Q07DX002 (ip), vehicle: saline with Tween-80): 56 % of control and 75 % of control | T/C (dose: 800.0 mg/kg/injection, schedule: Q07DX002 (ip), vehicle: saline with Tween-80): 49 % of control and 68 % of control

Cc1nnc2ncccn12
T/C [1]: 84 % of control and 105 % of control | T/C [7]: 113 % of control and 102 % of control | T/C [8]: 81 % of control

C/C=C1\C[C@@H]2C(OC)Nc3cc(O)c(OC)cc3C(=O)N2C1 (stereo not given in full)
T/C (dose: 0.06 mg/kg/injection, schedule: Q07DX002 (ip), vehicle: saline): 121 % of control | T/C (dose: 0.12 mg/kg/injection, schedule: Q07DX002 (ip), vehicle: saline): 98 % of control | T/C (dose: 0.12 mg/kg/injection, schedule: Q07DX002 (ip), vehicle: suspension in saline): 122 % of control | T/C (dose: 0.25 mg/kg/injection, schedule: Q07DX002 (ip), vehicle: saline): 102 % of control | T/C (dose: 0.25 mg/kg/injection, schedule: Q07DX002 (ip), vehicle: suspension in saline): 108 % of control | T/C (dose: 0.5 mg/kg/injection, schedule: Q07DX002 (ip), vehicle: saline): 102 % of control | T/C (dose: 0.5 mg/kg/injection, schedule: Q07DX002 (ip), vehicle: suspension in saline): 166 % of control | T/C (dose: 1.0 mg/kg/injection, schedule: Q07DX002 (ip), vehicle: saline): 105 % of control | T/C (dose: 1.0 mg/kg/injection, schedule: Q07DX002 (ip), vehicle: suspension in saline): 84 % of control
